Experimental data as given in ChEMBL document CHEMBL1201862, “PubChem BioAssay data set” (2004).
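Where inhibition never reached the appropriate level, the endpoint shown equals the highest concentration tested. Otherwise, values were interpolated linearly from a five-concentration, 48-hour dose response in 96-well plates. Here, GI50 denotes the concentration required for 50% inhibition of growth.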 Calls of active or inactive are those of the source. Rule as the data show it: active = GI50 up to about 1.1 µM and inactive = higher.

Tests used:
Assay in all cases: inhibition of tumour cell growth, NCI panel, 48 h
[1] = system: SF-295
[2] = system: NCI-H23
[3] = system: SF-268
[4] = system: OVCAR-4
[5] = system: IGROV-1
[6] = system: TK-10
[7] = system: OVCAR-3
[8] = system: SF-539
[9] = system: SK-OV-3
[10] = system: UACC-257
[11] = system: COLO 205
[12] = system: MOLT-4
[13] = system: PC-3
[14] = system: SNB-19
[15] = system: KM12
[16] = system: A549
[17] = system: SN12C
[18] = system: Malme-3M
[19] = system: HOP-62
[20] = system: UO-31

Measured: GI50

O=C(N/C(=C\c1ccccc1)C1Nc2ccccc2C(=O)O1)c1ccccc1 (stereo not given)
inactive: [1] 37 µM | [2] 37.5 µM | [3] 44 µM | [4] 53.7 µM | [5] 34.3 µM | [6] > 100 µM | [7] 27.3 µM | [8] 20.2 µM | [9] 55.6 µM | [10] 20.6 µM | [11] 30.4 µM | [12] 18.7 µM | [13] > 100 µM | [14] 33.8 µM | [15] 15.8 µM | [16] 87.5 µM | [17] 28.2 µM | [18] 16.6 µM | [19] 20.4 µM | [20] 19.6 µM

COc1cc(/C=N/N=C(\N)NO)cc(OC)c1OC
inactive: [1] 25.2 µM | [2] 38.2 µM | [3] 31.1 µM | [4] 40.8 µM | [5] 42.7 µM | [6] > 100 µM | [7] 21.9 µM | [8] 30.5 µM | [9] 67.8 µM | [10] 43.1 µM | [11] 12.4 µM | [12] 40.6 µM | [13] 44.6 µM | [14] > 100 µM | [15] 18.7 µM | [16] 18.7 µM | [17] 33.8 µM | [18] 22 µM | [19] 27.4 µM | [20] 33.1 µM

Cc1cc(S(=O)(=O)NC2=Nc3ccc(Cl)cc3C(c3ccccc3)N2)c(S)cc1Cl (stereo not given)
inactive: [1] 20.9 µM | [2] > 100 µM | [3] 9.12 µM | [4] 43.6 µM | [5] > 100 µM | [6] > 100 µM | [7] > 100 µM | [8] > 100 µM | [9] > 100 µM | [10] > 100 µM | [11] > 100 µM | [12] 62.5 µM | [13] 1.84 µM | [14] 28.5 µM | [15] 92.9 µM | [16] 17.8 µM | [17] > 100 µM | [18] > 100 µM | [19] 81.3 µM | [20] 46 µM

CC(=O)O[C@H]1[C@@H](N2CCOCC2)C[C@H]2[C@@H]3CC=C4C[C@@H](N5CCCC5)CC[C@]4(C)[C@H]3CC[C@@]21C
inactive: [1] > 100 µM | [2] > 100 µM | [3] > 100 µM | [4] > 100 µM | [5] > 100 µM | [6] > 100 µM | [7] > 100 µM | [8] 73.8 µM | [9] > 100 µM | [10] > 100 µM | [11] > 100 µM | [12] > 100 µM | [13] > 100 µM | [14] > 100 µM | [15] > 100 µM | [16] > 100 µM | [17] > 100 µM | [18] > 100 µM | [19] > 100 µM | [20] > 100 µM

NC1CNC(=O)c2c(Cl)sc(Cl)c21 (stereo not given)
inactive: [1] > 100 µM | [2] > 100 µM | [3] > 100 µM | [4] > 100 µM | [5] > 100 µM | [6] > 100 µM | [7] > 100 µM | [8] > 100 µM | [9] > 100 µM | [10] > 100 µM | [11] > 100 µM | [12] 78.5 µM | [13] > 100 µM | [14] > 100 µM | [15] > 100 µM | [16] > 100 µM | [17] > 100 µM | [18] > 100 µM | [19] > 100 µM | [20] > 100 µM

CSC(=S)N/N=C(\C)c1ccc(S(=O)(=O)N(C)c2ccccc2)cc1
inactive: [1] 12.8 µM | [2] 19.1 µM | [3] 9.44 µM | [4] 25.6 µM | [5] 3.5 µM | [6] > 100 µM | [7] 16.7 µM | [8] 48.3 µM | [9] 59.2 µM | [10] 33.7 µM | [11] 68.4 µM | [12] 19 µM | [13] 19.3 µM | [14] 26.4 µM | [15] 21.9 µM | [16] 29.1 µM | [17] > 100 µM | [18] 2.07 µM | [19] 56.5 µM | [20] 15.7 µM

C#C[C@]1(O)CC[C@H]2[C@@H]3CCC4=C/C(=N\OCCN5CCCCC5)CC[C@]4(C)[C@H]3CC[C@@]21C
inactive: [1] 3.56 µM | [2] 3.83 µM | [3] 6.44 µM | [4] 13.6 µM | [5] 7.18 µM | [6] 7.28 µM | [7] 5.15 µM | [8] 4.11 µM | [9] 16 µM | [10] 3.98 µM | [11] 2.12 µM | [12] 3.9 µM | [13] 3.39 µM | [14] 6.9 µM | [15] 3.44 µM | [16] 7.08 µM | [17] 6.89 µM | [18] 8.79 µM | [19] 11 µM | [20] 4.23 µM

C=C(C)C(O)C(O)C[C@@H](C)C1CC[C@]23C[C@]12CCC1[C@@]2(C)CCC(OC(C)=O)C(C)(C)C2CC(OC2OC(CO)C(O)C(O)C2O)[C@]13C (stereo not given in full)
inactive: [1] 18.9 µM | [2] 19.2 µM | [3] 18.3 µM | [4] 16 µM | [5] 15.3 µM | [6] 20.8 µM | [7] 17.6 µM | [8] 14.6 µM | [9] 20.9 µM | [10] 17 µM | [11] 17.6 µM | [12] 18.5 µM | [13] 18.4 µM | [14] 20 µM | [15] 17.7 µM | [16] 50 µM | [17] 16.8 µM | [18] 17.5 µM | [19] 16.7 µM | [20] > 100 µM
